Source: patent US20250302775A1, “METHODS FOR THE TREATMENT OF DEPRESSION” (Autobahn Therapeutics, Inc., priority 2022, published 2025)

Experiments:
[1] = target: T1, recombinant human FAAH (rhFAAH) (Homo sapiens, UniProt O00519); assay: FAAH substrate evaluation: formation of acid metabolite; assay type: biochemical; conditions: 0.5 ng/μL rhFAAH, 1 μM test compound, room temperature, pH 8.0, 0-60 minutes
T1 construct: purchased Cayman Chemical (Ann Arbor, MI, USA)
T1 sequence (O00519 1-579): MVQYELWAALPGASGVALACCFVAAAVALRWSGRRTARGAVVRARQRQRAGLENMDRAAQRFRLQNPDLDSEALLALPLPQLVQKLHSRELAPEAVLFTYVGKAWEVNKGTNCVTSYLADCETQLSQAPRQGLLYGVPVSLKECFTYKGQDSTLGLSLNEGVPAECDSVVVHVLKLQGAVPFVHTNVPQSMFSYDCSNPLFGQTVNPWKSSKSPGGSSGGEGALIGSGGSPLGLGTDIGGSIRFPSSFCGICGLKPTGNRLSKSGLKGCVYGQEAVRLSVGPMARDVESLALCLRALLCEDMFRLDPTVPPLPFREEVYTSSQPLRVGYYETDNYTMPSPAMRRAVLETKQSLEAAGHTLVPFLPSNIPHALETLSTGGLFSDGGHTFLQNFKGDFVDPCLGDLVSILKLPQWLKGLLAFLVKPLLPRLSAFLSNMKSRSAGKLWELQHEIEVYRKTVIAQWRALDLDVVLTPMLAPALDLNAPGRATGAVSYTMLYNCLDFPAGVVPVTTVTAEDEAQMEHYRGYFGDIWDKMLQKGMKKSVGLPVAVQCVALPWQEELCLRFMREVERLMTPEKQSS
Description: Purified recombinant human FAAH (rhFAAH) was purchased from Cayman Chemical (Ann Arbor, MI, USA). The total volume for each incubation was 400 μL containing a final 0.5 ng/μL rhFAAH, 1 μM test compound, 1.25% ethanol or 1 μM PF-3845 (FAAH inhibitor), and 0.1% bovine serum albumin in Tris-EDTA buffer at pH 8.0). The positive control was LL-341001. The incubation was conducted at the room temperature. At 0, 5, 15, 30 and 60 minutes, an aliquot of 30 μL reaction mixtures was removed and mixed with 300 μL acetonitrile containing 5 ng/mL terfenadine and 10 ng/mL tolbutamide as internal standards to quench the reaction. The resulting mixture was centrifuged at 4000 rpm, 4° C. for 15 minutes, and 100 μL supernatant was ready for LC-MS/MS analysis to measure the formation of acid metabolite.
Acquity Ultra Performance LC system from Waters was used for sample analysis. The chromatography was performed on a reverse phase Kinetex 2.6 μm C18 column, 2.1×30 mm, 100 Å. The mobile phase A comprised of 0.1% formic acid in water and mobile phase B comprised of 0.1% formic acid in acetonitrile with a 2-min run time at the flow rate of 0.8 mL/min for the acid metabolite from positive control or a 1.5 min run time at the flow rate of 0.9 mL/min for the acid metabolite of test compounds. The mass spectrometer (API-5500 and API Q Trap 4000 Applied Biosystems/MDS SCIEX Instruments, Framingham, MA, USA) was operated under ESI positive or negative ion MRM mode.
The formation of acid metabolite was monitored and quantified using one calibration point of 1 μM. The observed rate constant (ke) for the acid metabolite formation was calculated by plotting the metabolite concentration versus time of incubation with the slope being ke and is shown in Table 1.

FAAH = target: T2, FAAH (Mus musculus, UniProt O08914); assay: tissue distribution in mice after co-dosing ABX-002 with or without PFI or GFI; assay type: in vivo; conditions: for Distribution: peripheral or global FAAH inhibitor
T2 construct: from tissue; host or cells: living mice (plasma, liver, brain)
T2 sequence (O08914 1-579): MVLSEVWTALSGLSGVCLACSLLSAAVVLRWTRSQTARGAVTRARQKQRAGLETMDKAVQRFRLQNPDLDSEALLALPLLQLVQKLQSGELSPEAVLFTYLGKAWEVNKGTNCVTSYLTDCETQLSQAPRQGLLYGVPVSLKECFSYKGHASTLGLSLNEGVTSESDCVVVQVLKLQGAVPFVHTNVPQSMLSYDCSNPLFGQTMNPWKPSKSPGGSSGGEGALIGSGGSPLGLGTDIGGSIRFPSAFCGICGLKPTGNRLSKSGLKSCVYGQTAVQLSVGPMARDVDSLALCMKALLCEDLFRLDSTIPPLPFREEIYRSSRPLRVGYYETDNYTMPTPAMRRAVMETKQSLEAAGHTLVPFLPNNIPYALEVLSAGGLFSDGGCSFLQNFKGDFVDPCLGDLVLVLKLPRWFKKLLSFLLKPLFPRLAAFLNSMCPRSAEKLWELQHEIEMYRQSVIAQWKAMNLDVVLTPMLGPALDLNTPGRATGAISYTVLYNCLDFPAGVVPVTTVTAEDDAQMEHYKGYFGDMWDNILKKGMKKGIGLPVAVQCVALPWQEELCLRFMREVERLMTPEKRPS
Description: The ability of globally-penetrant and peripherally-restricted FAAH inhibitors (GFI & PFI, respectively) to alter distribution of ABX-002 and ABX-002A was assessed.
Table 5 depicts the inhibition of active metabolite (LL-650177 or PF-044578454) in AUC in the plasma, liver, and brain after prodrug (ABX-002) co-dosing. Tissue distribution studies in mice confirm global & peripheral inhibition of FAAH.

[2] = system: T3-responsive target genes; assay: expression of T3-responsive target genes in brain, single PO administration; assay type: in vivo, male C57BL/6 mouse; conditions: LL-341070 about 0.1 to about 300 μg/kg, T3 about 300 μg/kg
[3] = tissue distribution (TD) assay in mouse, brain and plasma; assay type: in vivo, male C57BL/6 mouse
[4] = system: T3-responsive target genes; assay: expression of T3-responsive target genes in brain, rat cuprizone model; assay type: in vivo; conditions: 21 day repeat administration; LL-341070 30 or 100 μg/kg, T3 300 μg/kg; Nanostring
recombinant human FAAH = target: T3, recombinant human FAAH (Homo sapiens, UniProt O00519); assay: FAAH inhibition, apparent IC50 with AMC substrate; assay type: biochemical; conditions: 30 min preincubation with recombinant human FAAH and AMC; read-out: Apparent IC50s
T3 sequence (O00519 1-579): T1 sequence (O00519 1-579)

[5] = after prodrug (ABX-002) co-dosing, mice

| Structure (SMILES) | ke (observed rate constant for the acid metabolite formation) [1] | other results |
| --- | --- | --- |
| CNC(=O)COc1cc(Cl)c(Cc2ccc(O)c(C(C)C)c2)c(Cl)c1 [Compound 1] | A (A = ke is more than or equal to 0.1) | prodrug levels in plasma, liver and brain with FAAH inhibition (FAAH; co-dosing with PFI or GFI, mice): did not change or slightly increased |
| CNC(=O)COc1cc(Cl)c(Cc2ccc(O)c(C(C)C)c2F)c(Cl)c1 [Compound 31] | A (A = ke is more than or equal to 0.1) | expression of Hr, Dio3, Klf9 in brain [2]: increases expression of Hr, Dio3, Klf9; AUC ([3]; male, C57BL/6, mouse, plasma, po, 100 ug/kg): 18.8 ng·h/mL; Brain AUC ([3]; single PO 100 μg/kg, male C57BL/6 mouse, AUC 0-24 hr): 10.9 ng·h/mL; expression of T3-responsive genes in brain [4]: expression increase was confirmed |
| CC#CCNC(=O)COc1cc(Cl)c(Cc2ccc(O)c(C(C)C)c2)c(Cl)c1 [Compound 106] | B (B = ke is less than 0.1 and more than 0) |  |
| CC#CCN(C)C(=O)COc1cc(Cl)c(Cc2ccc(O)c(C(C)C)c2)c(Cl)c1 [Compound 107] | B (B = ke is less than 0.1 and more than 0) |  |
| CC(C)c1cc(Cc2c(Cl)cc(OCC(=O)N(C)N(C)C)cc2Cl)ccc1O [Compound 108] | B (B = ke is less than 0.1 and more than 0) |  |
| CC(C)c1c(O)ccc(Cc2c(Cl)cc(OCC(=O)Nc3cncnc3)cc2Cl)c1F [Compound 109] | A (A = ke is more than or equal to 0.1) |  |
| CC(C)c1c(O)ccc(Cc2c(Cl)cc(OCC(=O)Nc3ccncn3)cc2Cl)c1F [Compound 110] | A (A = ke is more than or equal to 0.1) |  |
| CC(C)c1cc(Cc2c(Cl)cc(OCC(=O)N[C@@H]3C[C@@H]3F)cc2Cl)ccc1O [Compound 111] | A (A = ke is more than or equal to 0.1) |  |
| CC(C)c1cc(Cc2c(Cl)cc(OCC(=O)NCCCF)cc2Cl)ccc1O [Compound 112] | A (A = ke is more than or equal to 0.1) |  |
| COc1ccc(NC(=O)COc2cc(Cl)c(Cc3ccc(O)c(C(C)C)c3)c(Cl)c2)nn1 [Compound 113] | A (A = ke is more than or equal to 0.1) |  |
| CC(C)c1cc(Cc2c(Cl)cc(OCC(=O)Nc3cccnc3)cc2Cl)ccc1O [Compound 114] | A (A = ke is more than or equal to 0.1) |  |
| CC(C)c1cc(Cc2c(Cl)cc(OCC(=O)Nc3ccnnc3)cc2Cl)ccc1O [Compound 116] | A (A = ke is more than or equal to 0.1) |  |
| CC(C)c1cc(Cc2c(Cl)cc(OCC(=O)N3CCCC3)cc2Cl)ccc1O [Compound 117] | B (B = ke is less than 0.1 and more than 0) |  |
| CC(C)c1cc(Cc2c(Cl)cc(OCC(=O)N3CCC3)cc2Cl)ccc1O [Compound 118] | B (B = ke is less than 0.1 and more than 0) |  |
| CC(C)c1cc(Cc2c(Cl)cc(OCC(=O)NC(C)(C)C)cc2Cl)ccc1O [Compound 119] | C (C = ke is 0) |  |
| CC(C)CN(C)C(=O)COc1cc(Cl)c(Cc2ccc(O)c(C(C)C)c2)c(Cl)c1 [Compound 120] | C (C = ke is 0) |  |

| Structure (SMILES) | ke (observed rate constant for the acid metabolite formation) [1] | other results |
| --- | --- | --- |
| CC(C)CNC(=O)COc1cc(Cl)c(Cc2ccc(O)c(C(C)C)c2)c(Cl)c1 [Compound 121] | C (C = ke is 0) |  |
| CC(C)c1cc(Cc2c(Cl)cc(OCC(=O)N(C)C(C)C)cc2Cl)ccc1O [Compound 122] | B (B = ke is less than 0.1 and more than 0) |  |
| CC(C)c1cc(Cc2c(Cl)cc(OCC(=O)N(C)CCO)cc2Cl)ccc1O [Compound 123] | B (B = ke is less than 0.1 and more than 0) |  |
| CNN(C)C(=O)COc1cc(Cl)c(Cc2ccc(O)c(C(C)C)c2)c(Cl)c1 [Compound 124] | B (B = ke is less than 0.1 and more than 0) |  |
| CC(C)c1cc(Cc2c(Cl)cc(OCC(=O)N(C)CCF)cc2Cl)ccc1O [Compound 125] | B (B = ke is less than 0.1 and more than 0) |  |
| CC(C)NC(=O)COc1cc(Cl)c(Cc2ccc(O)c(C(C)C)c2)c(Cl)c1 [Compound 126] | A (A = ke is more than or equal to 0.1) |  |
| CC(C)c1cc(Cc2c(Cl)cc(OCC(=O)NC3CCC3)cc2Cl)ccc1O [Compound 127] | B (B = ke is less than 0.1 and more than 0) |  |
| C=CCN(C)C(=O)COc1cc(Cl)c(Cc2ccc(O)c(C(C)C)c2)c(Cl)c1 [Compound 128] | B (B = ke is less than 0.1 and more than 0) |  |
| CCCN(C)C(=O)COc1cc(Cl)c(Cc2ccc(O)c(C(C)C)c2)c(Cl)c1 [Compound 129] | B (B = ke is less than 0.1 and more than 0) |  |
| CCN(C)C(=O)COc1cc(Cl)c(Cc2ccc(O)c(C(C)C)c2)c(Cl)c1 [Compound 130] | B (B = ke is less than 0.1 and more than 0) |  |
| CC(C)c1cc(Cc2c(Cl)cc(OCC(=O)N(C)CC(F)(F)F)cc2Cl)ccc1O [Compound 131] | B (B = ke is less than 0.1 and more than 0) |  |
| CC(C)c1cc(Cc2c(Cl)cc(OCC(=O)N(C)CC(F)F)cc2Cl)ccc1O [Compound 132] | B (B = ke is less than 0.1 and more than 0) |  |
| CC(C)c1cc(Cc2c(Cl)cc(OCC(=O)N3CCOCC3)cc2Cl)ccc1O [Compound 133] | A (A = ke is more than or equal to 0.1) |  |
| O=C(Nc1cccnn1)N1CCC(=Cc2cccc(Oc3ccc(C(F)(F)F)cn3)c2)CC1 [PF-04457845] |  | IC50 (recombinant human FAAH): 0.003 µM; inhibition of active metabolite AUC, Brain (FAAH; [5]): 83%; inhibition of active metabolite AUC, Liver (FAAH; [5]): 94%; inhibition of active metabolite AUC, Plasma (FAAH; [5]): 94%; Distribution (FAAH): Global |
| NC(=O)c1cccc(-c2cc(OC(=O)NC3CCCCC3)ccc2O)c1 [URB937] |  | IC50 (recombinant human FAAH): 0.069 µM; Distribution (FAAH): Peripheral |
